Experimental data from patent US7838288B2, “Modulators of odorant receptors” (Duke University, priority 2004, dated 2010).

How the values were obtained:
[1] = system: olfr62; assay: CRE-luciferase reporter gene assay, olfr62; assay type: cell-based, mouse; details: Hana3A cells
Protocol: Four ORs (S6/79, S18, S46 and S50) previously assayed using other techniques (see, e.g., Malnic, B., et al. (1999) Cell 96, 713-723; herein incorporated by reference in its entirety) were tested against an assay panel of aliphatic alcohols, aldehydes and acids and some other odorants. Additionally, five “orphan” class I ORs (MOR23-1, MOR31-4, MOR31-6, MOR32-5 and MOR32-11) whose cognate ligands were unknown were tested. At a suprathreshold concentration of 100 uM, all these ORs were odorant selective, responding to only a small subset of the odorants tested (see FIG. 11A). This specificity was retained at lower, more physiologically relevant concentrations. Many of these ORs responded to odorants present in micromolar concentrations. The cell-surface expression of these ORs by living-cell immunofluorescence were evaluated. Some ORs (S18, MOR31-4, MOR31-6 and MOR32-5) were strongly expressed while other ORs (S6, S50, MOR23-1, MOR32-11) were weakly expressed (see FIG. 12). The present invention is not limited to a particular mechanism. Indeed, an understanding of the mechanism is not necessary to practice the present invention. […] Finally, two additional orphan class II ORs, MOR203-1 and olfr62, were tested against a panel of 139 odorants. […] Olfr62 responded to coumarine and piperonal (see FIG. 11C). […] When parental 293T cells for these ORs were used in this luciferase assay, little or no response to the odorants was observed. The present invention is not limited to a particular mechanism. Indeed, an understanding of the mechanism is not necessary to practice the present invention.
Dual-Glo system (Promega) for luciferase assay was used. CRE-Luciferase (Stratagene) was used to measure the receptor activities. Renilla luciferase driven by constitutively active SV40 promoter (pRL-SV40: Promega) was used as an internal control. Cells were plated on poly-D-lysine coated 96 well plates (BIOCOAT, Beckton Dickinson). After 8 hours (for experiments shown in FIGS. 8B and 8C) or 12 hours (for experiments shown in FIG. 8D and FIG. 11) after transfection, the medium was replaced with CD293 chemically defined medium (Invitrogen) and the plates were incubated for one hour at 37 degrees C. The medium was replaced with 50 ul of odorant solutions dissolved in CD293 and incubated for 10 hours (for experiments shown in FIGS. 8B and 8C) or 4 hours (for experiments shown in FIG. 8D and FIG. 11) at 37 degrees C. The manufacture's protocol for measuring luciferase and Renilla luciferase activities was followed. Luminescence was measured using Wallac Victor 1420 (Perkin-Elmer). Normalized luciferase activity was calculated as [Luc (N)-Luc (0)]/RL (N), where Luc (N)=Luminescent count of a certain well, Luc (0)=Luminescent count without odorant for each OR, and RL (N)=Luminescent count of Renilla Luciferase of each well. For cAMP assays, cells were plated onto 24-well plate. […]. Prism software (Graphpad) was used for data analysis. […]

[2] = system: Eight other ORs located near the IVA locus; assay: Luciferase assay, other ORs near the IVA locus; assay type: cell-based
From the text: In experiments conducted during the course of the present invention, not only three class I ORs (S46, MOR23-1, MOR31-4) but also MOR203-1, a class II OR, responded to nonanoic acid. The present invention is not limited to a particular mechanism. Indeed, an understanding of the mechanism is not necessary to practice the present invention. […] Olfr62 is one of the closely related ORs located near or at the IVA locus, implicated in isovaleric acid sensation (see, e.g., Griff, I. C., and Reed, R. R. (1995) Cell 83, 407-414; Zhang, X., and Firestein, S. (2002) Nat Neurosci 5, 124-133; each herein incorporated by reference in their entireties). […] The present invention is not limited to a particular mechanism. Indeed, an understanding of the mechanism is not necessary to practice the present invention.
Dual-Glo system (Promega) for luciferase assay was used. CRE-Luciferase (Stratagene) was used to measure the receptor activities. Renilla luciferase driven by constitutively active SV40 promoter (pRL-SV40: Promega) was used as an internal control. […] Luminescence was measured using Wallac Victor 1420 (Perkin-Elmer). Normalized luciferase activity was calculated as [Luc (N)-Luc (0)]/RL (N), where Luc (N)=Luminescent count of a certain well, Luc (0)=Luminescent count without odorant for each OR, and RL (N)=Luminescent count of Renilla Luciferase of each well. […]

SMILES: CC(C)CC(=O)O [isovaleric acid, Isovaleric acid]
- response of olfr62 to odorant (luciferase) [1]: did not respond
- response of eight other ORs near the IVA locus to odorant [2]: none of them responded
